Laboratory results reported in PubChem BioAssay AID179 (DTP/NCI, 2004).
pEC50, pIC50: −log10 of the molar value. Activity calls are given as the source filed them.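 The calls were made as follows: active = compounds giving half or more protection of infected cells from virus-caused growth loss, again on retest; inactive = the rest.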 Where a SMILES comes first, the peptide text is derived from it. [ ]: non-standard residue; d: D form. The star is where a group is joined. ξ: configuration not given here. Bz = O=C(c1ccccc1)*; Bn = c1ccc(C*)cc1; ξC = NC(CS)C(=O)O

System: CEM cells HIV-1 protection, formazan growth assay
Experiment: NCI AIDS Antiviral Assay
Details: for pIC50: measured here: growth of uninfected CEM cells
Procedure: The ability of compounds to protect human CEM cells from HIV-1 infection is measured as a screen for new compounds capable of inhibiting the HIV virus. Five concentrations of drug were tested on uninfected and infected cells and cell growth was measured using a soluble formazan assay. […] Compounds that provided at least 50% protection were retested. Compounds that provided at least 50% protection on retest were listed as moderately active. Compounds that reproducibly provided 100% protection were listed as confirmed active. […] Note that the inability to provide protection could be due to toxicity.

O=C(Nn1c(-c2ccccc2)nc2ccccc2c1=O)c1ccc(O)cc1
pEC50: < 3.70
pIC50: < 3.70

CCOC(=O)c1c(C)nn2c1ccc1ccccc12
pEC50: < 3.70
pIC50: 3.96

N#CCCC(C=O)(CCC#N)CCC#N
pEC50: < 3.70
pIC50: < 3.70

O=c1[nH]c2cc(Cl)ccc2nc1/C(=N\Nc1ccccc1)C(O)c1ccc(Cl)c(Cl)c1 (centres undefined)
pEC50: < 3.66
pIC50: 4.74

Cc1cc(NS(=O)(=O)c2ccc(Nc3c4ccccc4nc4c(C(=O)NC=O)cccc34)cc2)no1
pEC50: < 3.70
pIC50: 4.91

CCN(CC)c1c(C)nnn1C1OC(COC(C)=O)C(OC(C)=O)C(OC(C)=O)C1OC(C)=O (centres undefined)
pEC50: < 3.85
pIC50: < 3.85

CCOC1=NC(C(F)(F)F)(C(F)(F)F)N=C(N2CCCCC2)O1
pEC50: < 3.70
pIC50: 4.01

O=C(CNC(=O)c1ccccc1)NC(CSCc1ccccc1)C(=O)O (centres undefined) (Bz-Gly-[ξC](Bn)-OH)
pEC50: < 3.17
pIC50: 3.26

COc1ccc2ccc3[nH]c4c(C)cnc(NCCCN(C)C)c4c3c2c1
pEC50: < 5.70
pIC50: 6.48

COc1ccc(C(c2ccc(OC)cc2)N2C(=O)CCC2C(=O)O)cc1 (centres undefined)
pEC50: < 3.70
pIC50: < 3.70

CC1=NC2C(=O)N(C)C(=O)N(C)C2n2c(O)ccc21 (centres undefined)
pEC50: < 5.70
pIC50: < 5.70

CC(=O)OC12C(C)=C(C)C(=O)N1c1ccccc1N2C(C)=O (centres undefined)
outcome: inactive

CCCCOC(=O)c1ccc(NC(=O)C(C)N(CC)CC)cc1 (centres undefined)
pEC50: < 3.70
pIC50: 4.44

COC(=O)C1=C(C(=O)[C@H](Cc2ccccc2)NC(=O)c2ccccc2)CCC1
pEC50: < 4.02
pIC50: 4.05

COC(=O)C(=O)/C=C(\O)c1ccc(Cl)cc1
pEC50: < 3.70
pIC50: < 3.70

O=C1CCCC2COc3ccc(O)c1c32 (centres undefined)
outcome: inactive

CC(C)(C)N/N=C(\Cc1occc(=O)c1O)C(=O)Nc1ccc([N+](=O)[O-])cc1[N+](=O)[O-]
pEC50: < 3.80
pIC50: < 3.80

N#CCC(=O)N/N=C(\CCN1CCCC1)CC(c1ccccc1)c1c(O)c2ccccc2oc1=O (centres undefined)
pEC50: < 4.01
pIC50: 4.26

CCOc1c(Cc2ccccc2)c(=O)nc2c(-c3ccccc3)cncn12
pEC50: < 3.70
pIC50: 4.37

CC(=O)c1c(-c2ccc(Cl)cc2)c(C#N)c(=S)n(C2OC(CO)C(O)C(O)C2O)c1C (centres undefined)
pEC50: < 3.70
pIC50: 4.35

O=C(NC1C=Nc2ccccc2NC1=O)c1ccc(Cl)cc1 (centres undefined)
pEC50: < 3.70
pIC50: < 3.70

Cc1cn(CC2=NCCCN2)c(=O)[nH]c1=O
pEC50: < 3.70
pIC50: < 3.70

CC(=O)c1ccc(OCC(O)CO)cc1 (centres undefined)
pEC50: < 3.21
pIC50: < 3.21

CCc1cccc(C(C)C)c1NC(=O)C(=O)C(c1ccccc1)S(=O)(=O)Cc1ccccc1 (centres undefined)
pEC50: < 3.70
pIC50: < 3.70

CC(C)N(C=C(C#N)C#N)C(C)C
pEC50: < 3.70
pIC50: < 3.70

Cc1ccc(N/N=C/C2=CC(C)(C)C(C#N)(C#N)C(O)=C2C#N)cc1
pEC50: < 3.70
pIC50: 5.18

CCN(CC)CCNC(=O)c1ccccc1NC(=O)C(=O)Nc1ccccc1C(=O)NCCN(CC)CC
pEC50: < 5.16
pIC50: < 5.16

NNC(=O)N/N=C1/C(=O)N(c2ccc(Cl)c(Cl)c2)C(=O)C(=O)C1c1nc2ccccc2o1 (centres undefined)
outcome: inactive

CCOC(=O)N1N(c2ccccc2)C(=O)C1(c1ccccc1)c1ccccc1
pEC50: < 3.70
pIC50: 3.87

CC(=O)Nc1nc(Cl)cc(NCC2(CO)CCC2)n1
pEC50: < 3.70
pIC50: < 3.70

Cc1cc(C)nc(SC(F)(F)c2nc3ccccc3o2)n1
outcome: active

CC(C)N(C(=O)C12C3C4C5(C#N)C3C1(C#N)C5C42C#N)C(C)C (centres undefined)
pEC50: < 4.49
pIC50: < 4.49

O=C(COc1ccccc1Cl)N1N=C(c2ccccc2)CC1(O)c1ccccc1 (centres undefined)
pEC50: < 4.61
pIC50: < 4.61

Cc1ccc(N2CCc3c(C)c(C#N)c4nc5ccccc5n4c32)cc1
pEC50: < 3.70
pIC50: < 3.70

O=C(C1OC1c1ccc(Br)cc1O)C12CC3CC(CC(C3)C1)C2 (centres undefined)
pEC50: < 3.70
pIC50: 3.96

CCCCCCCCCCCCCCCC(=O)OCC1OC(n2cc(F)c(=O)[nH]c2=O)C(NC(=O)N(CCCl)N=O)C(O)C1O (centres undefined)
pEC50: < 4.69
pIC50: 5.46

COc1ccc(-c2nc(N)c(C#N)c3c2CCSc2ccc(C)cc2-3)cc1OC
pEC50: < 3.70
pIC50: 4.93

CCSC(=O)N1c2ccc(OC)cc2C=CC1C#N (centres undefined)
pEC50: < 6.16
pIC50: 7.39

CC(C)(C)c1cc2c(O)c(c1)Cc1cc(C(C)(C)C)cc(c1O)Cc1cc(C(C)(C)C)cc(c1O)Cc1cc(C(C)(C)C)cc(c1O)C2
pEC50: < 4.11
pIC50: < 4.11
